What was measured:
[1] = target: Phospholipase A2 group IB (pancreatic, Sus scrofa); assay: In vitro activity against porcine pancreatic phospholipase-A2 (PLA2) and monomerically dispersed substrate
[2] = target: Phospholipase A2 group IB (Sus scrofa); assay: In vitro activity against porcine pancreatic phospholipase-A2 (PLA2) and micellar substrate with deoxycholate (DOC)

Row | SMILES | IC50 [1] [µM] | IC50 [2] [µM]
1 | CCCCCCCCCC(=O)N[C@@H](CC(=O)O)CC(C)C [(R)-3-((S)-Decanoylamino)-5-methyl-hexanoic acid] | 1.4 | 15
2 | CCCCCCCCCCCCCCCC(=O)N[C@@H](CC(=O)O)CC(C)C [(R)-3-((S)-Hexadecanoylamino)-5-methyl-hexanoic acid] | 0.19 | 7.3
3 | CCCCCC/C=C/CC(=O)N[C@@H](CC(=O)O)CC(C)C [(R)-3-((S)-(E)-Dec-3-enoylamino)-5-methyl-hexanoic acid] | 0.3 | 8.5
4 | CCCCCC/C=C/CC(=O)N[C@H](CSc1ccc2ccccc2c1)CC(=O)O [(S)-3-((S)-(E)-Dec-3-enoylamino)-4-(naphthalen-2-ylsulfanyl)-butyric acid] | 0.023 | 0.79
5 | CCCCCC/C=C/CC(=O)N[C@H](CSc1ccccc1)CC(=O)O [(S)-3-((S)-(E)-Dec-3-enoylamino)-4-phenylsulfanyl-butyric acid] | 0.095 | 2.2

Second part, the compound after the results:

Row | IC50 [1] [µM] | IC50 [2] [µM] | SMILES
6 | 1.3 | 19 | CCCCCCCCCCCCCCCC(=O)N[C@@H](CCCC(=O)O)CC(C)C [(S)-5-((S)-Hexadecanoylamino)-7-methyl-octanoic acid]
7 | 0.2 | 4.5 | CCCCCCCCCCCCCCCC(=O)N[C@@H](CCC(=O)O)CC(C)C [(S)-4-((S)-Hexadecanoylamino)-6-methyl-heptanoic acid]
